“Also recorded” adds a separate entry of the source. Where two headings read alike, the source gives them in different places. Each block holds one molecule with its values, some of them ahead of it.
What was measured:
SK Hep-1 = experiment: 48 h MTT dye reduction assay; format: cell-based; conditions: Homo sapiens, SK-HEP1, read-out: IC50 Values ± SEM (n)
Text: (§1) The cytotoxic activity of rADF-Ant was compared to several chemotherapeutic drugs on a panel of three HCC cell lines.

Hep3B = experiment: 48 h MTT dye reduction assay; format: cell-based; conditions: Homo sapiens
Text: as §1
(§2) Without limiting the invention to any particular mechanism, another possible mechanism of resistance is expression of the multidrug resistance associated protein (MRP). This protein is thought to exert a function similar to the p-glycoprotein, and is expressed at high levels in the HepG2 and SK Hep-1 cell lines (Takeuchi, et al., 1999, J Gastroenterol 34:351-358). Increased expression of thioredoxin, which functions as a cellular defense mechanism against oxidative stress, may also protect HCC's from some chemotherapeutic agents (Kawahara, et al., 1996, Cancer Res 56:5330-5333). Expression of different xenobiotic enzymes (e.g. cytochrome P-450 and glutathione S-transferase) may also contribute to the intrinsic drug resistance of HCC (Murray, et al., 1993, Cancer 71:36-43). Additional studies explored whether the high intrinsic levels of drug resistance in the HCC lines can be even further augmented by adherence to ECM protein. Overexpression of b1 integrin and its role in the progression of HCC has been reported (Patriarca, et al., 1993, J Pathol 171:5-11). Overexpression of b1-integrin in several HCC lines (including HepG2) protected them from chemotherapeutic drug-induced apoptosis via a MAP kinase-dependent pathway (Zhang, et al., 2002, Cancer 95:896-906). Knockout of a6b1-integrin expression reversed the transformed phenotype of HepG2 cells (Carloni et al., 1998, Gastroenterology. 115:433-442). […] These properties of HCCs may contribute to the marked changes in amount and distribution of ECM components found in the stroma of HCC as compared to normal liver (Jaskiewicz, et al., 1993, Anticancer Res 13:2229-2238). Thus, the combination of increased expression of integrins in HCCs as well as abnormalities in the surrounding ECM may create an environment that both promotes tumor growth and inhibits apoptosis. Therefore, the inventors tested HepG2 and Hep3B for drug sensitivity when assayed on plates coated with BSA as a control, or on FN as described above for U937 cells.

HepG2 = experiment: 48 h MTT dye reduction assay; format: cell-based; conditions: Homo sapiens
Text: as §1, §2

U9-NAD - = experiment: DNA fragmentation in whole cells (release of 3H-labeled DNA fragments, 4 h); format: cell-based; conditions: Homo sapiens, read-out: IC50 Value (minimal concentration to cause 50% DNA fragmentation)
Experimental: (§3) DNA fragmentation in whole cells or normal nuclei isolated from U937 or MCF-7 cells was assayed by release of (3H)thymidine-labeled DNA fragments as described in detail previously (Wright et al. (1994) J. Exp. Med. 180, 2113-2123). DNA fragmentation induced by rADF treatment of isolated nuclei for four h was analyzed by agarose electrophoresis as described in detail previously (Wright et al. (1994) supra). In four h assays using isolated nuclei, the buffer was supplemented with an ATP regenerating system (2 mM ATP, 10 mM phosphocreatine, and 50 μg/ml creatine kinase).
(§4) Another mechanism whereby cancer cells may resist apoptosis is through overexpression of heat shock (HS) proteins which have been found at high levels in most tumor cell biopsies (Jaattela, et al., 1999, Exp Cell Res 248:30-43). […] We have studied the mechanisms of apoptosis resistance using several variants derived from the U937 cell line. Variants generated by prolonged growth in the presence of TNF (U9-TR) or by nutritional depletion of intracellular NAD content (U9-NAD-) have been described in the literature previously (Wright, et al., 1992, Cancer Immunol Immunother 34:399-406; Wright, et al., 1996b, J. Exp. Med. 183: 463-477). Both of these variants were resistant to apoptosis induced by diverse agents, such as chemotherapeutic drugs, UV light, and TNF.

MES-SA/Dx5 (MDR1 high) = experiment: cells; conditions: 48 h, read-out: IC50 Values
Text: (§5) One of the most frequently reported alterations associated with multidrug resistance is increased expression of the 170 kDa membrane protein called P-glycoprotein encoded by the MDR1 gene. It functions as an energy-dependent drug efflux pump that reduces intracellular drug accumulation, thereby causing resistance to many structurally unrelated drugs (Roninson, et al., 1986, Proc Natl Acad Sci 83:4538-4542). To determine if MDR1 overexpressing cells were sensitive to rADF, the inventors tested the parental drug-sensitive uterine sarcoma, MES-SA, compared to a variant selected by culturing in doxorubicin, MES-SA/Dx5, described previously (Chen et al., 1997).

U937 cells [1] = experiment: DNA fragmentation in whole cells (release of 3H-labeled DNA fragments, 4 h); format: cell-based, human; conditions: for IC50: Homo sapiens, U-937, 4 h
Experimental: as §3

HL-60 Bcl-2 = experiment: as above; format: cell-based; conditions: Homo sapiens
U937 cells [2] = experiment: Viability by trypan blue exclusion after 4 h treatment; format: cell-based, human; conditions: for IC50: Homo sapiens, U-937, trypan blue, 4 h
MES-SA (parental) = experiment: 48 h MTT dye reduction assay; format: cell-based; conditions: Homo sapiens
Text: as §5

U9-TR = experiment: DNA fragmentation in whole cells (release of 3H-labeled DNA fragments, 4 h); format: cell-based, human; conditions: Homo sapiens; U9-TR; 4 hr; read-out: IC50 Value (minimal concentration to cause 50% DNA fragmentation)
Experimental: as §3, §4

HL-60 neo = experiment: as above; format: cell-based; conditions: Homo sapiens
isolated U937 nuclei = experiment: DNA fragmentation in isolated nuclei (release of 3H-labeled DNA fragments; agarose gel); format: biochemical, human
Experimental: as §3
ADF was purified from 2.9 mg of pig heart mitochondrial MDH obtained from Worthington Enzymes, New Jersey. Protein was fractionated by gel filtration on a Tosohaas G2000SWXL 7.8 mm×300 mm HPLC column, and each fraction tested for DNA fragmentation in isolated U937 nuclei (ADF activity) and for MDH enzyme activity. Active fractions were pooled and applied to a reverse phase C4 Brownlee 2.1 mm×220 mm column equilibrated in H2O+0.0075% trifluoroacetic acid pH 6.5, and eluted with a linear gradient to 40% acetonitrile.
In preliminary studies, the inventors observed that supernatants of normal mitochondria derived from cultured cells or freshly isolated liver cells incubated in vitro contained activity that induced internucleosomal DNA cleavage in isolated U937 nuclei. […] To ascertain that the DNA fragmenting activity of MDH was not due to a contaminating nuclease, the inventors purified the commercial enzyme to determine the source of the ADF activity.
Therefore, it is likely that ADF directly or indirectly activates endonucleases present in isolated nuclei.

isolated MCF-7 nuclei = experiment: DNA fragmentation in isolated nuclei (release of 3H-labeled DNA fragments); format: biochemical, human; conditions: nuclei from MCF-7 cells (no caspase 3); four h assay
ICAD/DFF45 = experiment: Western blot for ICAD cleavage in rADF-treated nuclei; format: biochemical, human; conditions: U937 nuclei treated with rADF
naked DNA = experiment: DNase assay on naked DNA substrate (rADF alone or extracts of rADF-treated U937 nuclei); format: biochemical, human
[3] = Hep3B (BSA) plate coating, read-out: IC50 Values
[4] = Hep3B (FN) plate coating, read-out: IC50 Values
[5] = read-out: IC50 Values ± SEM (n)
[6] = HepG2, 48 h, HepG2 (BSA) plate coating, read-out: IC50 Values
[7] = HepG2, 48 h, HepG2 (FN) plate coating, read-out: IC50 Values
[8] = HepG2, 48 h, HepG2, read-out: IC50 Values ± SEM (n)

IC50 (Hep3B; [3]): 490 µM
IC50 (Hep3B; [4]): > 2 µM
IC50 (Hep3B; [5]): 410 µM
IC50 (HepG2; [6]): 515 µM
IC50 (HepG2; [7]): > 2 µM
IC50 (HepG2; [8]): 620 µM
Molecule: O=c1[nH]cc(F)c(=O)[nH]1 [5-FU, 5-fluorouracil]
IC50 (SK Hep-1): 203 µM

IC50 (Hep3B; [3]): 86 µM
IC50 (Hep3B; [4]): > 400 µM
IC50 (Hep3B; [5]): 80 µM
IC50 (HepG2; [6]): 104 µM
IC50 (HepG2; [7]): > 400 µM
IC50 (HepG2; [8]): 122 µM
Molecule: COc1cccc2c1C(=O)c1c(O)c3c(c(O)c1C2=O)C[C@@](O)(C(=O)CO)C[C@@H]3O[C@H]1C[C@H](N)[C@H](O)[C@H](C)O1 [Dox, doxorubicin]
IC50 (SK Hep-1): 73 µM

Molecule: COc1cc([C@@H]2c3cc4c(cc3[C@@H](O[C@@H]3O[C@@H]5CO[C@@H](C)O[C@H]5[C@H](O)[C@H]3O)[C@H]3COC(=O)[C@H]23)OCO4)cc(OC)c1O [Etoposide, etoposide]
IC50 (U9-NAD -): > 500 µM
IC50 (MES-SA/Dx5 (MDR1 high)): > 500 µM
IC50 (U937 cells [1]; U937, 4 hr, read-out: IC50 Value (minimal concentration to cause 50% DNA fragmentation)): 12 µM
IC50 (U937 cells [1]; U937 on BSA, 4 h DNA fragmentation, read-out: IC50 Values): 4 µM
IC50 (U937 cells [1]; U937 on FN, 4 h DNA fragmentation, read-out: IC50 Values): 15 µM
fold higher concentration to induce 50% DNA fragmentation (U937 cells [1]; cells adhering to FN vs plated on BSA): about 5 fold
IC50 (HL-60 Bcl-2): 380 µM
IC50 (U937 cells [2]; U937 + PMA (10 nM, 3 days)): 510 µM
IC50 (U937 cells [2]; U937): 4 µM
factor of resistance of PMA-treated cells (U937 cells [2]; PMA-treated vs normal U937): 127 fold
IC50 (SK Hep-1): 58 µM
IC50 (MES-SA (parental)): 59 µM
IC50 (Hep3B; [3]): 210 µM
IC50 (Hep3B; [4]): 840 µM
IC50 (Hep3B; [5]): 95 µM
IC50 (HepG2; HepG2 (BSA) plate coating, read-out: IC50 Values): 35 µM
IC50 (HepG2; HepG2, read-out: IC50 Values ± SEM (n)): 231 µM
IC50 (U9-TR): > 500 µM
IC50 (HL-60 neo): 26 µM

B1: MDH derived from porcine heart mitochondria: commercial preparation of mitochondrial malate dehydrogenase (Worthington Enzymes) (protein, UniProt P00346 25-338, looked up)
Malate dehydrogenase, …: AKVAVLGASGGIGQPLSLLLKNSPLVSRLTLYDIAHTPGVAADLSHIETRATVKGYLGPEQLPDCLKGCDVVVIPAGVPRKPGMTRDDLFNTNATIVATLTAACAQHCPDAMICIISNPVNSTIPITAEVFKKHGVYNPNKIFGVTTLDIVRANAFVAELKGLDPARVSVPVIGGHAGKTIIPLISQCTPKVDFPQDQLSTLTGRIQEAGTEVVKAKAGAGSATLSMAYAGARFVFSLVDAMNGKEGVVECSFVKSQETDCPYFSTPLLLGKKGIEKNLGIGKISPFEEKMIAEAIPELKASIKKGEEFVKNMK
concentrations dose-dependently inducing nuclear DNA fragmentation (isolated U937 nuclei; isolated nuclei): 2 to 10 µg/mL

B2: rADF: recombinant human activator of DNA fragmentation, 9 kDa C-terminal fragment of mitochondrial MDH, SEQ ID NO:7 (protein, listed as Homo sapiens)
chain: KAKAGAGSATLSMAYAGARFVFSLVDAMNGKEGVVECSFVKSQETECTYFSTPLLLGKKGIEKNLGIGKVSSFEEKMISDAIPELKASIKKGEDFVKTLK
activation of nuclear DNA fragmentation (isolated MCF-7 nuclei): dose-dependent activation
DNA fragmentation activity at the same concentrations (U937 cells [1]; 2.25-9 nM, 4 h assay): little activity
ICAD/DFF45 cleavage (ICAD/DFF45): not cleaved
DNase activity on naked DNA of extracts from treated nuclei (naked DNA; U937 nuclei incubated with rADF 20 h): digested naked DNA
digestion of naked DNA by rADF itself (naked DNA; rADF without nuclei): did not digest naked DNA; also recorded: little or no activity
internucleosomal DNA fragmentation (isolated U937 nuclei; agarose gel, 4 h): induced internucleosomal DNA fragmentation
activation of nuclear DNA fragmentation (isolated U937 nuclei; nuclei from U937 cells, four h assay): dose-dependent activation

— patent US20040191843A1, “Cell-killing molecules and methods of use thereof” (Palo Alto Institute of Molecular Medicine, priority 2003, published 2004)
